Data: US20160089464A1, “MALODOR REDUCTION COMPOSITIONS” (The Procter & Gamble Company, priority 2014, published 2016)

Experiment: Comment Code material properties: vapor pressure, ClogP, probability of ingredient color instability, odor detection threshold, melamine formaldehyde PMC headspace response ratio and leakage, liquid dish neat product liquid-air partition coefficient
Assay type: physicochemical
Details: Table 1 materials; each letter of the code is one property class (vapor pressure, ClogP, color instability, odor detection threshold, PMC headspace ratio, PMC leakage, liquid dish liquid-air partition coefficient)

| Compound | Comment Code |
| --- | --- |
| CC(=CCC1CC=C(C)C1(C)C)CO (centres unmarked) [Material 908] | CHJK |
| C=CC(C)(CCC=C(C)C)OC(C)OCC (centres unmarked) [Material 916] | BDEFHJK |
| C=CC(=C)CCC=C(C)CCC=C(C)C [Material 628] | DEFHJK |
| CC(C)CCc1ccc2c(c1)OCC(=O)CO2 [Material 658] | DHJ |
| CCC=C(C)C(O)CCCCC (centres unmarked) [Material 1104] | BDEFHIJK |
| C=C(C)C1CCC(C)C2=C(C1)C(C)CC2 (centres unmarked) [Material 709] | DEFHJKL |
| C=C1C2CCC(C)(OCC)C1CCC2(C)C (centres unmarked) [Material 606] | BDEFHJK |
| CC1=CCC23C(C)CCC(C(C)C)C2C13 (centres unmarked) [Material 714] | ADEFHJKL |
| CCC=C1OC(=O)c2ccccc21 [Material 805] | CEFHK |
| CCCCCC(=Cc1ccccc1)CO [Material 721] | DEFHJ |
| CC(=O)CCc1ccc2c(c1)OCO2 [Material 976] | CEFGJ |
| O=C(Cc1ccccc1)OCCc1ccccc1 [Material 959] | DHJ |
| CC1(C)C2CC=C(CC=O)C1C2 (centres unmarked) [Material 973] | ACFHIJKL |
| CC1CCC(C(C)(C)S)C(=O)C1 (centres unmarked) [Material 1059] | BDEFHIJKL |
| CC1=C2CCC(C)C2CC(C(C)(C)O)CC1 (centres unmarked) [Material 920] | DEFHJK |
| O=C(Oc1ccccc1)c1ccccc1 [Material 965] | DFHJK |
| O=C1CCCCCCCCCCOCCCCO1 [Material 562] | DGJ |
| CCOCOC1CCCCCCCCCCC1 [Material 607] | DEFHJK |
| CC(CC=O)CCc1ccccc1 (centres unmarked) [Material 807] | BDFHJK |

| Compound | Comment Code |
| --- | --- |
| CC1C(C)(C)C2=C(C(=O)CCC2)C1(C)C (centres unmarked) [Material 572] | BDEFHIJK |
| CC(C)=CCCC1=CCC(C)(C=O)CC1 (centres unmarked) [Material 988] | DFHJK |
| CC1CC(C)(c2ccccc2)CO1 (centres unmarked) [Material 1006] | BDEFHJK |
| C/C=C1/CC2CC1C1CCCOC21 (centres unmarked) [Material 1008] | BCEFHJKL |
| C=C1CCCC(C)(C)C2C=C(C)CCC12 (centres unmarked) [Material 707] | BDEFHJK |
| CC1=CC[C@@H]2[C@@]3(C)CCCC(C)(C)[C@@H]3CC[C@@]2(C)O1 [Material 1029] | DEFHJK |
| c1ccc(CCOC2CCCCC2)cc1 [Material 953] | DEFHJK |
| CC(C)[C@@]12CC(=O)[C@H](C)[C@@H]1C2 [Material 683] | ADEFGIJKL |
| CCCCCC/C=C/C=O [Material 1070] | ADHKL |
| CC(C)=C1CCC(C)C2=C(C1)C(C)CC2 (centres unmarked) [Material 626] | DEFHJKL |
| CCCCCCCC(C)=O [Material 840] | ADFHIKL |
| COC(Cc1ccccc1)OC [Material 627] | DHJK |
| CCCCCCCC(C)O (centres unmarked) [Material 839] | BDEFGIKL |
| CC(C)=CCC/C(C)=C/CC/C(C)=C/CO [Material 1065] | DEFHJK |
| COc1c2ccoc2cc2oc(=O)ccc12 [Material 638] | CGJ |
| CCCCCCCCCCCCCO [Material 1090] | DEFGJK |
| CCCCCCCCCCC=CC=O [Material 930] | BDFHJK |
| CCCCCC=C1CCCC1=O [Material 850] | DFHJKL |
| CC(=O)OC12CCCC(C)(CCC3C1CC3(C)C)C2 (centres unmarked) [Material 573] | DEFHJK |

| Compound | Comment Code |
| --- | --- |
| COC(=O)c1ccccc1N=CCC(C)CCCC(C)(C)O (centres unmarked) [Material 661] | DEFHJ |
| CC(=O)c1cc(C(C)(C)C)cc2c1CCC2(C)C [Material 563] | DEFHJK |
| COC(=O)c1ccccc1N=CC1CC(C)=CC(C)C1 (centres unmarked) [Material 754] | DEFHJ |
| C=C(C)[C@@H]1CCC2=CCC[C@@H](C)[C@]2(C)C1 [Material 1105] | BDEFHJK |
| C=C(C)C1CCC(C)(OC(C)=O)CC1 (centres unmarked) [Material 611] | BDHJK |
| CCC(C)(O)CCc1ccccc1 (centres unmarked) [Material 731] | CEFHJK |
| CC(C)C1=CCC(C)(O)CC1 (centres unmarked) [Material 982] | BCGIJK |
| CC(C)=CCCC(C)c1ccc(C)cc1 (centres unmarked) [Material 713] | DEFHJK |
| CC(C)OCCc1ccccc1 [Material 950] | ACEFHJKL |
| CC1=CCCC2(C)OC2CCC(C)=CCC1 (centres unmarked) [Material 568] | DFHJK |
| CC(C)=CCCC(C)=C1CC=C(C)CC1 [Material 608] | DEFHJK |
| CCCCCCC/C=C\CCC=O [Material 1045] | BDFHJK |
| CCCCCC(=O)Oc1ccc(C)cc1 [Material 939] | DEFHJK |
| CC12CCCC(O)(C1)C1CC(C)(C)C1CC2 (centres unmarked) [Material 574] | DEFHJK |
| CC1C(C)(C)C2CCC3CC(C)(C)OC3C2C1(C)C (centres unmarked) [Material 679] | ADEFHJK |
| CC(C)=CCCC1=CCC(C)(C=O)CC1 (centres unmarked) [Material 727] | DFHJK |
| CC1CC(C)(C)OC(Cc2ccccc2)O1 (centres unmarked) [Material 1003] | DEFHJK |
| CCCCCCCCCCC=O [Material 1102] | BDHJK |
| CC(C)C1OCCC2(CC3CCC2(C)C3(C)C)O1 (centres unmarked) [Material 659] | DEFHJK |

Same assay, conditions: cell strings several class symbols together; each letter is one property class of L1

| Compound | Comment Code |
| --- | --- |
| N#CC=Cc1ccccc1 [Material 549] | ACEFGIK |
| CC(C)CCCC(C)CC=O (centres unmarked) [Material 1051] | ADGIJKL |
| C=C(C)C1CC=C(C)C(=O)C1 (centres unmarked) [Material 576] | ACGIJKL |
| CC/C=C\CC1=C(C)CCC1=O [Material 526] | BCHIJKL |
| CC(C)C(=O)OC1CC2CC1C1C=CCC21 (centres unmarked) [Material 487] | DEFHJK |
| C=C1CCC2(C(C)C)CC12 (centres unmarked) [Material 1018] | ADEFGIJKL |
| CC=CC(=O)OCCCCCC [Material 55] | ADEFHJKL |
| CC1=CCC23C(C)CCC(C(C)C)C2C13 (centres unmarked) [Material 714] | ADEFHJKL |
| C=Cc1ccc(O)cc1 [Material 789] | BCHIK |
| CC(=O)CCc1ccc(O)cc1 [Material 1002] | CEFGIK |
| O=C(OCc1ccccc1)c1ccccc1O [Material 641] | DFGJ |
| CCOc1cc(COC)ccc1O [Material 115] | CFGK |
| CCCCCCCC(=O)OCCC(C)C [Material 237] | DEFHJK |
| CC(C)C(=O)OCCc1ccccc1 [Material 958] | DHJK |
| COC(C)(C)CCCC(C)C=O (centres unmarked) [Material 125] | ACGIJK |
| C=C(C)CC(C)OC(=O)C(C)C (centres unmarked) [Material 201] | ADEFGIJKL |
| CCCCCC(=O)O [Material 583] | ACEFGIKL |
| COC(=O)c1ccccc1/N=C\C1CCC(C)=CC1C (centres unmarked) [Material 1131] | DEFHJ |
| CC(C)=CCCC(C)CCO (centres unmarked) [Material 517] | BCHIJKL |
| CC1CC(=O)CC(C)(C)C1 (centres unmarked) [Material 439] | ACEFGIJKL |
| COc1ccc(C=O)cc1OC [Material 1118] | BCGIK |
| CC1=CC[C@@H]2[C@@]3(C)CCCC(C)(C)[C@@H]3CC[C@@]2(C)O1 [Material 1029] | DEFHJK |
| CCC(C)c1nccnc1OC (centres unmarked) [Material 845] | BCEFGIK |
| CCCCCCOC(=O)c1ccco1 [Material 275] | DEFHJK |
| COC(=O)Cc1ccccc1 [Material 97] | ACEFHIKL |
| CCC(C)(O)CCCC(C)C (centres unmarked) [Material 1054] | BDEFGIJKL |
| C=CCOCCc1ccccc1 [Material 744] | ACEFHK |
| COC(Cc1ccccc1)OC [Material 627] | DHJK |

| Compound | Comment Code |
| --- | --- |
| CCC(=O)CC(C)CC (centres unmarked) [Material 784] | ACFGIKL |
| CC=Cc1ccc(OCC)c(O)c1 [Material 1112] | CEFHK |
| CC=Cc1ccc(O)c(OC)c1 [Material 214] | CEFHIK |
| CC12CCC(CC1)C(C)(C)O2 [Material 376] | ADEFGIJKL |
| CC(=O)OC12CCCC(C)(CCC3C1CC3(C)C)C2 (centres unmarked) [Material 573] | DEFHJK |
| CC(C)c1ccc(CC=O)cc1 [Material 977] | BDFHK |
| C[C@H]1[C@@H]2C[C@H](C[C@@]13C=CC(=O)CC3)C2(C)C [Material 1143] | DEFHJK |
| COc1c2ccoc2c(OC)c2oc(=O)ccc12 [Material 199] | CFGJ |
| CC1=CC(=O)[C@@H]2C[C@H]1C2(C)C [Material 1119] | ACEFGIJKL |
| CCOC1CCC(C(C)(C)CC)CC1 (centres unmarked) [Material 12] | ADEFHJK |
| CC=CC(=O)C1C(C)=CCCC1(C)C (centres unmarked) [Material 880] | BDHIJK |
| COc1ccc(COC=O)cc1 [Material 665] | BCEFGK |
| CC(C)(C)[C@@H]1CCCC[C@H]1O [Material 1071] | ACGIJKL |
| CC(=O)O.CCOc1cc(C=O)ccc1O [Material 379] | CHJ |
| C=C1[C@H]2CC[C@H](CO)[C@@]23CC[C@H](C3)C1(C)C [Material 183] | CEFHJK |
| CC(=O)OC(C)(C)C1CC=C(C)CC1 (centres unmarked) [Material 687] | BDHJK |
| CC1=CCC(CC#N)C1(C)C (centres unmarked) [Material 585] | ACGIJKL |
| CC(=O)OC(c1ccccc1)C(Cl)(Cl)Cl (centres unmarked) [Material 1088] | BDEFGJ |
| CC(C)C=CCO [Material 194] | ACGIKL |
| CC(C)=CCC/C(C)=C/COC=O [Material 306] | BCEFHJK |
| CCCCCCCOC(C)=O [Material 283] | ADEFHKL |
| CC12CCCC(O)(C1)C1CC(C)(C)C1CC2 (centres unmarked) [Material 574] | DEFHJK |
| C=CCOC(=O)COC1CCCCC1 [Material 918] | CHJK |
| CC(=O)OC1CC2CC1C1CCCC21 (centres unmarked) [Material 441] | DEFHJKL |
| CC1C(C)(C)C2CCC3CC(C)(C)OC3C2C1(C)C (centres unmarked) [Material 679] | DEFHJK |
| CCOC(=O)[C@@H]1[C@@H](C)CCCC1(C)C [Material 1058] | ADEFHIJKL |
| CC(C)C1OCCC2(CC3CCC2(C)C3(C)C)O1 (centres unmarked) [Material 659] | BDEFHJK |

Same assay, conditions: letter codes A-L: vapor pressure, ClogP, probability of ingredient color instability, odor detection threshold, PMC headspace response ratio, PMC leakage, liquid dish liquid-air partition coefficient; Table 1 materials with at least one MORV from 1 to 5

| Compound | Comment Code |
| --- | --- |
| COC(=O)c1ccccc1/N=C\C1CCC(C)=CC1C (centres unmarked) [Material 1131] | DEFHJ |
| CC(C=O)=CCC1C(C)=CCCC1(C)C (centres unmarked) [Material 1116] | BDFHJK |
| CC/C=C/CC/C=C\C#N [Material 1138] | ACEFHKL |
| C[C@H]1[C@@H]2C[C@H](C[C@@]13C=CC(=O)CC3)C2(C)C [Material 1143] | DEFHJK |
